Results on one compound are retold here after US12479822B2, “AHR agonists” (Eli Lilly and Company, priority 2021, dated 2025).

Each structure is given as a SMILES string.

For this data set, the target named is T1, Human AHR (Homo sapiens, UniProt P35869).
T1 construct: expressed in transfected cells
T1 sequence (P35869 11-848): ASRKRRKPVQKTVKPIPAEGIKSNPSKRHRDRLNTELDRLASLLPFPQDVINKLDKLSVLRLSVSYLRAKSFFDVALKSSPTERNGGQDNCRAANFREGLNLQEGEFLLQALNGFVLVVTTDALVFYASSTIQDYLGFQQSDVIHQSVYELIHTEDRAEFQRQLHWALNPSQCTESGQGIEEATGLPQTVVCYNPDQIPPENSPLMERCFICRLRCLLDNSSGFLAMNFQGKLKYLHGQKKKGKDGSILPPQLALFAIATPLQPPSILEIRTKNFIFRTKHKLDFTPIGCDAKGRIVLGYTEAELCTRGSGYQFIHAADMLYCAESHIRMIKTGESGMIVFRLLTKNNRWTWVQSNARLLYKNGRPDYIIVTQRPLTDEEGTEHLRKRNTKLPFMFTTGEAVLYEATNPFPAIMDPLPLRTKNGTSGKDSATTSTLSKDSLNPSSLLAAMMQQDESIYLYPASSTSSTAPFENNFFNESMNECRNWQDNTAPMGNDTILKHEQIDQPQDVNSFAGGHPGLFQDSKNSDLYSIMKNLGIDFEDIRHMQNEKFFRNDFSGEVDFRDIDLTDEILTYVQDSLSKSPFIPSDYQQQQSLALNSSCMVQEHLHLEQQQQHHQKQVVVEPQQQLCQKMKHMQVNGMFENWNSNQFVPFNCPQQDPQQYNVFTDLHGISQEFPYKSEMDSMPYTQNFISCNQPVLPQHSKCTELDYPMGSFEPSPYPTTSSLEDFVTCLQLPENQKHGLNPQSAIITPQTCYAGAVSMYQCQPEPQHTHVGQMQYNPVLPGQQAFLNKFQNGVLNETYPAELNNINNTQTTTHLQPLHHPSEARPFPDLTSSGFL
Kind of data set: hAHR Nuclear Translocation Assay. Type of data set: cell-based. The following applies: Jump-In T-REx HEK293 cells expressing AhR-EGFP chimera; 45 minutes incubation; ratio of EGFP fluorescent intensity in nuclear over cytosol; 20-point curve. The procedure: Stable cell lines were established using Jump-In™ T-REx™ HEK293 Retargeting Kit (Life Technologies). Human AHR cDNA was cloned into the pJTI R4 CMV-TO EGFP vector. The EGFP was cloned to the C-terminal of AHR to form AhR-EGFP chimera. The pJTI R4 CMV-TO AhR-EGFP vector was transfected using FuGENE® HD into Jump-In™ T-REx™ HEK293 cells. Transfected cells were selected using 2.5 mg/ml G418 for 10 to 14 days, then expanded, harvested, and suspended in freeze media (FBS with 8% DMSO) at 2×10^7 cells/ml, and aliquots were stored in liquid nitrogen. […] On the assay date, compound was serially diluted (1:2) into 384-well nunc plates with DMSO using acoustic dispensing (ECHO). The dose response was a 20-point curve. Compound was resuspended in 40 μl of DMEM plus 0.1% BSA. The culture media was damped and 25 μl of DMEM plus 0.1% BSA was added, then 25 μl of compound in DMEM plus 0.1% BSA was added into cell plates. Cells were incubated with compounds at 37° C. and 5% CO2 for 45 minutes. The final DMSO concentration was 0.2%. The media was damped after 45 minutes of incubation. The cells were fixed with 40 μl of cold methanol (−20° C.) for 20 minutes. The methanol was damped and 50 μl of DPBS containing 1 μg/ml Hochst was added into the cell plates. The intensity of EGFP was quantitated by using OPERA PHENIX® or Operetta™ high content image system (Perkin Elmer) with 20× Water Objective and five field per well. The ratio of EGFP fluorescent intensity in nuclear over cytosol was analyzed using a 4-parameter nonlinear logistic equation to determine the potency of AHR agonists.

Consider `O=C(Nc1ccc(F)cc1)c1cc2cccc3c2n(c1=O)CC3` [Example 30, N-(4-Fluorophenyl)-11-oxo-1-azatricyclo[6.3.1.04,12]dodeca-4(12),5,7,9-tetraene-10-carboxamide], for which the EC50 was 0.511 nM.
